Test results: paper PMC6662551 (Clinical and Translational Science, 2019)
Where “and” joins values, the source holds several entries; their conditions need not be identical. Identical values can stand only once. Like-named read-outs stand apart in the source and are kept apart here.

Legend:
[1] = tested on: OATP1B1; settings: c.521T>C carriers; cited from earlier work
[2] = tested on: OATP1B1; type: in vivo, human; settings: human, plasma, oral; for AUC(0-t): AUClast, 0.25-12 hour; for C0: C0, plasma, baseline
[3] = type: in vivo, human; settings: for AUClast: 0.25-12 hour; for ratio of mean AUC in SLCO1B1 c.521‐CC to c.521TT: endogenous biomarker; for C0: plasma
[4] = tested on: 3‐hydroxy‐3‐methylglutaryl coenzyme A reductase; settings: relative to pravastatin; cited from earlier work
[5] = named peak only
[6] = pravastatin + cyclosporine, CC (N = 2)
[7] = pravastatin + cyclosporine, TC (N = 6)
[8] = pravastatin + cyclosporine, TT (N = 8)
[9] = pravastatin + placebo, CC (N = 2)
[10] = pravastatin + placebo, TC (N = 6)
[11] = pravastatin + cyclosporine, all genotype (N = 16)
[12] = pravastatin + placebo, TT (N = 8)
[13] = pravastatin + placebo, all genotype (N = 16)
[14] = 12 hours after first CsA dose, pravastatin + cyclosporine, all genotype
[15] = baseline, pravastatin + placebo, all genotype
[16] = pravastatin + cyclosporine (N = 16)

For `CCOc1cc(CC(=O)N[C@@H](CC(C)C)c2ccccc2N2CCCCC2)ccc1C(=O)O` [repaglinide], the “increase in plasma levels in individuals with the OATP1B1‐Val174Ala variant” value [1] is listed as 1.5–3 fold.
For `O=C(O)CCCCCCCCCCCCC(=O)O` [TDA, tetradecanedioic acid], the AUC(0-t) [2, 6] was 1.55 µM·h, the AUC(0-t) [2, 7] was 0.652 ± 0.246 µM·h and the AUC(0-t) [2, 8] was 0.927 ± 0.282 µM·h. It also gave an AUC(0-t) [2, 9] of 1.8 µM·h, an AUC(0-t) [2, 10] of 0.386 ± 0.084 µM·h and a C0 ([2]; pravastatin + placebo, CC) of 131 ± 48.9 nM. It also gave a C0 ([2]; pravastatin + placebo, TC) of 31.3 ± 5 nM, a C0 ([2]; pravastatin + placebo, TT) of 44 ± 24.5 nM and an AUClast [3, 11] of 0.902 ± 0.378 µM·h. For the same compound, the AUClast [3, 12] was 0.448 ± 0.153 µM·h, the AUClast [3, 13] was 0.593 ± 0.489 µM·h and the “C0 fold increase, pravastatin plus CsA over pravastatin plus placebo” value (from here on “C0 fold increase, pravastatin plus CsA”) ([3]; CC) was 0.7 fold. The “AUClast fold increase, pravastatin plus CsA over pravastatin plus placebo” value (shortened to “AUClast fold increase”) ([3]; CC (N = 2)) was 0.9 fold, the “Cavg fold increase, pravastatin plus CsA over pravastatin plus placebo” value (“Cavg fold increase, pravastatin plus CsA” below) ([3]; CC (N = 2)) was 0.9 fold and the “C0 fold increase, pravastatin plus CsA” value ([3]; TC) was 1.4 fold. For the same compound, the “AUClast fold increase” value ([3]; TC (N = 6)) was 1.7 fold, the “Cavg fold increase, pravastatin plus CsA” value ([3]; TC (N = 6)) was 1.8 fold and the “C0 fold increase, pravastatin plus CsA” value ([3]; TT) was 2.1 fold. The “AUClast fold increase” value ([3]; TT (N = 8)) was 2.2 fold, the “Cavg fold increase, pravastatin plus CsA” value ([3]; TT (N = 8)) was 2.5 fold and the “Cavg fold increase, pravastatin plus CsA” value ([3]; all genotype) was 2.0 fold. The “Cmax fold increase, pravastatin plus CsA over pravastatin plus placebo” value ([3]; all genotype (N = 16)) was 2.2 fold, the “ratio of mean AUC in SLCO1B1 c.521‐CC to c.521TT” value [3] was 4.0 fold and the C0 [3, 14] was 68 ± 26 nM. The C0 [3, 15] was 55 ± 44 nM, the Cmax [3, 16] was 149 ± 71 nM and the Cavg [3, 6] was 144 ± 13.9 nM. It also gave a Cavg [3, 7] of 64.5 ± 26.4 nM, a Cavg [3, 8] of 87.6 ± 29.5 nM and a Cavg [3, 11] of 86.0 ± 35.8 nM. For the same compound, the Cmax ([3]; pravastatin + placebo (N = 16)) was 94.7 ± 118 nM, the Cavg [3, 9] was 171 ± 53.7 nM and the Cavg [3, 10] was 34.6 ± 10.4 nM. For the same compound, the Cavg [3, 12] was 38 ± 13.7 nM, the Cavg [3, 13] was 53.3 ± 49.3 nM and 53.3 ± 49.3****^, ^b nM and the “increase in plasma concentration, Cmax over baseline” value ([3]; pravastatin plus placebo, individuals homozygous c.521‐CC) was “at least twofold”. For the same compound, the “time of peak plasma level” value ([3]; two individuals c.521‐CC) was “around 3 hours and 3.0 hours”.
Compound coproporphyrin I [CP‐I] has an AUClast [3, 6] of 0.0276 ± 0.0084 µM·h, an AUClast [3, 7] of 0.0165 ± 0.0057 µM·h and an AUClast [3, 8] of 0.0118 ± 0.0023 µM·h. It also gave an AUClast [3, 11] of 0.0155 ± 0.0067 µM·h, an AUClast [3, 9] of 0.0178 ± 0.0032 µM·h and an AUClast [3, 10] of 0.0098 ± 0.0033 µM·h. The AUClast [3, 12] was 0.0069 ± 0.0012 µM·h, the AUClast [3, 13] was 0.0094 ± 0.0042 µM·h and the “baseline (C0) level” value ([3]; 16 samples) was “below the levels of quantification for 12 of 16 samples”. The “AUClast fold increase” value ([3]; CC (N = 2)) was 1.5 fold, the “Cavg fold increase, pravastatin plus CsA” value ([3]; CC (N = 2)) was 1.6 fold and the “AUClast fold increase” value ([3]; TC (N = 6)) was 1.7 fold. For the same compound, the “Cavg fold increase, pravastatin plus CsA” value ([3]; TC (N = 6)) was 2.0 fold, the “AUClast fold increase” value ([3]; TT (N = 8)) was 1.7 fold and the “Cavg fold increase, pravastatin plus CsA” value ([3]; TT (N = 8)) was 1.9 fold. For the same compound, the “Cavg fold increase, pravastatin plus CsA” value ([3]; all genotype) was 1.9 fold, the “Cmax fold increase, pravastatin plus CsA over pravastatin plus placebo” value ([3]; all genotype (N = 16)) was 2.2 fold and the “ratio of mean AUC in SLCO1B1 c.521‐CC to c.521TT” value [3] was 2.6 fold. The C0 [3, 14] was “BLOQ in most samples”, the C0 [3, 15] was “BLOQ in most samples” and the Cmax [3, 16] was 2.16 ± 0.71 nM. The Cavg [3, 6] was 2.50 ± 0.68 nM, the Cavg [3, 7] was 1.67 ± 0.33 nM and the Cavg [3, 8] was 1.15 ± 0.28 nM. For the same compound, the Cavg [3, 11] was 1.51 ± 0.56 nM, the Cmax ([3]; pravastatin + placebo (N = 16)) was 1.04 ± 0.45 nM and the Cavg [3, 10] was 0.88 ± 0.26 nM. For the same compound, the Cavg [3, 12] was 0.6 ± 0.1 nM and the Cavg [3, 13] was 0.83 ± 0.36 nM and 0.83 ± 0.36****^, ^b nM.
In the case of 3′α‐hydroxy‐pravastatin, the “inhibitory activity relative to the parent compound” value [4] is given as “one‐tenth to one‐fortieth” and the “ratio of mean AUC0→12 in SLCO1B1 c.521CC and c.521TT” value [5] is given as 1.2 fold.
